Source: patent US6921530B1, “Low dose IL-2 for potentiation of immunity” (Cornell Research Foundation, Inc., priority 1999, dated 2005)
“And” between values parts separate entries of the source, which are not always exact repeats. Equal entries are not always repeated.

Tested on: plasma HIV RNA
Experiment: Plasma HIV RNA (branched chain DNA assay) after cessation of PART with continued low-dose IL-2
Type: in vivo
Conditions: for Increasing HIV Dbl time: IL-2 250,000 U/m^2 daily continued; for Max. Decrease (log): peak to trough
Procedure: The parameters monitored throughout the study included the time to the onset of viremia, the rate of viremic increase, the peak plasma virus concentration and the rapidity and completeness of the disappearance of viremia.
Prior to the discontinuation of PART, at least 3 months of daily, low-dose (250,000 U/m^2) subcutaneous IL-2 (R-Met-HU IL2-Ala-125, Amgen, Thousand Oaks, Calif.) immuno-stimulatory therapy were administered as described in Jacobsen, E L et al., Proc Natl Acad Sci USA 93:10405-10 (1996). In addition, to ensure the safest possible immune parameters for the discontinuation of PART, IL-2 immuno-stimulation was continued after the anti-viral drugs were withdrawn. […] All subjects had undetectable plasma virus during this interval.
Subsequent to the discontinuation of PART, plasma HIV was monitored twice weekly. Plasma HIV RNA concentrations were determined on EDTA anti-coagulated plasma samples, which were frozen (−70° C.) within 3 hours of phlebotomy. Samples were assayed by Bayer Diagnostics, Emeryville, Calif. Lymphocyte subsets were determined on fresh blood samples by flow cytometry using subset-specific monoclonal antibodies and a FACSCaliber from Becton-Dickinson, San, Jose, Calif. by standard procedures according to the manufacturer. All subjects eventually experienced a relapse of viremia The onset of viremia in each subject was taken as t=day 1. The mean time interval until plasma virus once again became detectable was 19±3 (SEM) days (range 14-39 days). Once detectable, the plasma virus concentration increased progressively over 2.5 weeks, reaching a mean peak of 375,101±229,139 (SEM) (log10=5.15±0.21) HIV RNA molecules/ml. Thereafter, the virus concentration decreased progressively over the next 4-6 weeks, reaching an apparent trough defined as at least 4 successive measures of HIV RNA that varied less than 3-fold. By 6 weeks from the onset of the viremia, the mean virus concentration had decreased to 31,707±11,851 (SEM) (log10=4.21±0.19) HIV RNA molecules/ml, a drop from the peak viral concentration by an order of magnitude.

[1] = after cessation of PART, IL-2 continued, subject #1-9, mean
[2] = after cessation of PART, IL-2 continued, subject #1-9, mean, mean
[3] = second treatment interruption, 4 subjects

## Interleukin-2 [IL-2]
3 of 4 individuals
  peak plasma HIV RNA after the first interruption: 5.53±0.54 log10 HIV RNA molecules/ml
  peak plasma HIV RNA after the second interruption: 4.27±0.27 log10 HIV RNA molecules/ml
  peak plasma HIV RNA lower after second than first interruption: 1.26±0.14 log10 HIV RNA molecules/ml
After cessation of PART, subject #1-9, mean
  Increasing HIV Dbl time: 2.7 days and 1.3 days and 1.0 days and 2.0 days (2×) and 1.6 days (3×) and 1.2 days
After cessation of PART, subject #1-9, mean, mean
  Increasing HIV Dbl time: 1.6 days
[1]
  Decreasing HIV Time to Min.: 9 days and 28 days and 24 days and 7 days and 26 days (2×) and 10 days and 17 days and 18 days
  Increasing HIV Days to Peak: 28 days and 14 days (3×) and 21 days and 16 days (2×) and 18 days and 10 days
  Peak HIV #: 375,101±229,139 HIV RNA molecules/ml and 230,074 HIV RNA molecules/ml and 14059 HIV RNA molecules/ml and 40662 HIV RNA molecules/ml and 295942 HIV RNA molecules/ml and 160949 HIV RNA molecules/ml and 2185670 HIV RNA molecules/ml and 300203 HIV RNA molecules/ml and 375101 HIV RNA molecules/ml and 80910 HIV RNA molecules/ml and 230074 HIV RNA molecules/ml and 67442 HIV RNA molecules/ml
  Peak HIV (log): 5.15±0.21 log and (4.15) log and (4.61) log and (5.47) log and (5.21) log and (6.34) log and (5.48) log and (5.15) log and (4.91) log and (5.36) log and (4.83) log
  Trough HIV (log): 4.21±0.19 log and (3.96) log and (4.36) log and (4.69) log and (4.93) log and (4.97) log and (4.21) log and (3.68) log and (4.00) log and (3.36) log
After cessation of PART, IL-2 continued, subject #1-9, mean (by 6 weeks from onset of viremia)
  Trough HIV #: 31,707±11,851 HIV RNA molecules/ml and 9215 HIV RNA molecules/ml and 9180 HIV RNA molecules/ml and 22695 HIV RNA molecules/ml and 48562 HIV RNA molecules/ml and 85782 HIV RNA molecules/ml and 92901 HIV RNA molecules/ml and 31707 HIV RNA molecules/ml and 4741 HIV RNA molecules/ml and 10024 HIV RNA molecules/ml and 2266 HIV RNA molecules/ml
[2]
  Decreasing HIV Time to Min.: 18 days
  Increasing HIV Days to Peak: 17 days
After discontinuation of PART, 9 subjects, mean ± SEM and range
  time interval until plasma virus once again became detectable: 19 ± 3 days and 14 to 39 days
First 10 days after peak, IL-2 continued, subject #1-9, mean
  Decreasing HIV T ½: 84 ± 17 h and 182 h and 125 h and 132 h and 81.6 h and 38.4 h and 93.6 h and 84 h and 36 h and 43.2 h
Subject #1-9, mean
  Max. Decrease (log): 0.19 log and 0.65 log and 1.11 log and 0.52 log and 1.41 log and 0.51 log and 1.23 log and 1.36 log and 1.47 log
Subject #1-9, mean, mean
  Max. Decrease (log): 0.94 log
[3]
  latent period to detectable viremia: 14.5 ± 4.1 days
  rate of doubling (t½): 36 ± 7.2 h
Subject D3
  days plasma HIV RNA undetectable after discontinuation of PART: 39 days
  plasma HIV RNA after 98 days as % of the peak viral concentration: < 1%
  plasma HIV RNA after 98 days without PART: 1,686 HIV RNA molecules/ml
Subjects #1, 2, 3, 8
  mean magnitude of decline of plasma HIV, rapid rate subjects: 1.37±0.05 log10 HIV RNA molecules/ml
  t ½ of viral decline, subjects with rapid rate: 38.4 ± 2.4 h
Subjects #4, 5, 6, 7, 9
  magnitude of decline of plasma HIV, slower rate subjects: 0.59±0.15 log10 HIV RNA molecules/ml
  mean t ½ of viral decline, subjects with slow rate: 122 ± 17 h
